Measured values from US20230114728A1 (Venatorx Pharmaceuticals, Inc., priority 2019, published 2023).
Values after ≈ are worked out from the molar mass of the structure shown.

Experiments:
Experiment in all cases: Broth microdilution MIC in iron-depleted CAMHB (IDM)
Format in all cases: cell-based
[1] = tested on: A. baumannii CDC-0033 producing NDM-1, and OXA-94; details: Acinetobacter baumannii, read-out: Minimum Inhibitory Concentration, CDC-0033
Procedure, shortened: (§1)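 CLSI broth microdilution in Chelex-treated cation-adjusted Mueller-Hinton broth, refortified with Ca, Mg and 10 μM ZnSO4, pH 7.3. Inoculum 2-8×10^5 CFU/mL; 37 °C for 16-20 h (Pseudomonas) or 20-24 h (Acinetobacter). MIC read visually as lowest concentration without growth.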

[2] = tested on: A. baumannii CDC-0036 OXA-65, and OXA-24; details: Acinetobacter baumannii, read-out: Minimum Inhibitory Concentration, CDC-0036
Procedure, shortened: as §1

A. baumannii ATCC 19606 = details: Acinetobacter baumannii, ATCC19606, read-out: Minimum Inhibitory Concentration, ATCC 19606
Procedure, shortened: as §1

[3] = tested on: A. baumannii CDC-0083 producing NDM-1, PER-7, OXA-23, and OXA-69; details: Acinetobacter baumannii, read-out: Minimum Inhibitory Concentration, CDC-0083
Procedure, shortened: as §1

P. aeruginosa ATCC 27853 = details: Pseudomonas aeruginosa, ATCC27853, read-out: Minimum Inhibitory Concentration, P. aeruginosa ATCC 27853
Procedure, shortened: as §1

[4] = tested on: P. aeruginosa (ΔmexAB-oprM); details: Pseudomonas aeruginosa, read-out: Minimum Inhibitory Concentration, P. aeruginosa ΔmexAB-OprM
Procedure, shortened: as §1

A. baumannii ATCC 17978 = details: Acinetobacter baumannii, ATCC17978, read-out: Minimum Inhibitory Concentration, ATCC 17978
Procedure, shortened: as §1

[5] = tested on: P. aeruginosa CDC-0095 producing OXA-50, and PAO; details: Pseudomonas aeruginosa, read-out: Minimum Inhibitory Concentration, P. aeruginosa CDC-0095
Procedure, shortened: as §1

[6] = tested on: P. aeruginosa CDC-0054 producing VIM-4, OXA-50, and PAO; details: Pseudomonas aeruginosa, read-out: Minimum Inhibitory Concentration, P. aeruginosa CDC-0054
Procedure, shortened: as §1

P. aeruginosa ATCC 35151 = details: Pseudomonas aeruginosa, ATCC35151; iron-depleted MHB (IDM); hyper-permeable strain; read-out: Minimum Inhibitory Concentration, P. aeruginosa ATCC 35151
Procedure, shortened: as §1

[7] = tested on: P. aeruginosa CDC-0090 producing KPC-5, OXA-50, and PAO; details: Pseudomonas aeruginosa, read-out: Minimum Inhibitory Concentration, P. aeruginosa CDC-0090
Procedure, shortened: as §1

SMILES	MIC [1]	MIC [2]	MIC (A. baumannii ATCC 19606)	MIC [3]	MIC (P. aeruginosa ATCC 27853)	MIC [4]	MIC (A. baumannii ATCC 17978)	MIC [5]	MIC [6]	MIC (P. aeruginosa ATCC 35151)	MIC [7]
CCN1CCN(C(=O)N[C@H](C(=O)N[C@H]2Cc3ccc(F)c(C(=O)O)c3OB2O)c2c(F)cc(O)c(O)c2Cl)C(=O)C1=O (single isomer, unassigned) [Example 125]	> 128 µg/mL	> 128 µg/mL	> 128 µg/mL	> 128 µg/mL	> 128 µg/mL	> 128 µg/mL	> 128 µg/mL	> 128 µg/mL	> 128 µg/mL	> 128 µg/mL	> 128 µg/mL
NC1(CN2CCN(C(=O)N[C@@H](C(=O)N[C@H]3Cc4ccc(F)c(C(=O)O)c4OB3O)c3cc(F)c(O)c(O)c3Cl)C(=O)C2=O)CC1 (single isomer, unassigned) [Example 133]	8 to 16 µg/mL (≈ 12.3 to 24.5 µM)	2 to 4 µg/mL (≈ 3.07 to 6.14 µM)	0.25 µg/mL (≈ 0.384 µM)	> 128 µg/mL	0.5 to 1 µg/mL (≈ 0.767 to 1.53 µM)	0.25 µg/mL (≈ 0.384 µM)	0.25 µg/mL (≈ 0.384 µM)	2 to 4 µg/mL (≈ 3.07 to 6.14 µM)	0.5 to 1 µg/mL (≈ 0.767 to 1.53 µM)	0.25 µg/mL (≈ 0.384 µM)	0.5 to 1 µg/mL (≈ 0.767 to 1.53 µM)
NC1(CN2CCN(C(=O)N[C@@H](C(=O)N[C@H]3Cc4ccc(F)c(C(=O)O)c4OB3O)c3c(F)cc(O)c(O)c3Cl)C(=O)C2=O)CC1 (single isomer, unassigned) [Example 134]	32 to 64 µg/mL (≈ 49.1 to 98.2 µM)	8 to 16 µg/mL (≈ 12.3 to 24.5 µM)	0.5 to 1 µg/mL (≈ 0.767 to 1.53 µM)	> 128 µg/mL	2 to 4 µg/mL (≈ 3.07 to 6.14 µM)	0.25 µg/mL (≈ 0.384 µM)	0.5 to 1 µg/mL (≈ 0.767 to 1.53 µM)	32 to 64 µg/mL (≈ 49.1 to 98.2 µM)	32 to 64 µg/mL (≈ 49.1 to 98.2 µM)	0.25 µg/mL (≈ 0.384 µM)	2 to 4 µg/mL (≈ 3.07 to 6.14 µM)
NCCN1CCN(C(=O)N[C@@H](C(=O)N[C@H]2Cc3ccc(F)c(C(=O)O)c3OB2O)c2cc(F)c(O)c(O)c2Cl)C(=O)C1=O (single isomer, unassigned) [Example 179]	8 to 16 µg/mL (≈ 12.8 to 25.6 µM)	2 to 4 µg/mL (≈ 3.2 to 6.39 µM)	0.5 to 1 µg/mL (≈ 0.799 to 1.6 µM)	> 128 µg/mL	0.5 to 1 µg/mL (≈ 0.799 to 1.6 µM)	0.25 µg/mL (≈ 0.4 µM)	0.5 to 1 µg/mL (≈ 0.799 to 1.6 µM)	2 to 4 µg/mL (≈ 3.2 to 6.39 µM)	0.5 to 1 µg/mL (≈ 0.799 to 1.6 µM)	0.25 µg/mL (≈ 0.4 µM)	2 to 4 µg/mL (≈ 3.2 to 6.39 µM)
NCCCN1CCN(C(=O)N[C@@H](C(=O)N[C@H]2Cc3ccc(F)c(C(=O)O)c3OB2O)c2cc(F)c(O)c(O)c2Cl)C(=O)C1=O (single isomer, unassigned) [Example 180]	8 to 16 µg/mL (≈ 12.5 to 25 µM)	8 to 16 µg/mL (≈ 12.5 to 25 µM)	0.5 to 1 µg/mL (≈ 0.782 to 1.56 µM)	> 128 µg/mL	0.5 to 1 µg/mL (≈ 0.782 to 1.56 µM)	0.25 µg/mL (≈ 0.391 µM)	0.5 to 1 µg/mL (≈ 0.782 to 1.56 µM)	2 to 4 µg/mL (≈ 3.13 to 6.25 µM)	0.5 to 1 µg/mL (≈ 0.782 to 1.56 µM)	0.25 µg/mL (≈ 0.391 µM)	2 to 4 µg/mL (≈ 3.13 to 6.25 µM)
C[C@@H](O)[C@@H](NC(=O)N1CCN(CCNC(=O)c2c(F)cc(O)c(O)c2Cl)C(=O)C1=O)C(=O)N[C@H]1Cc2ccc(F)c(C(=O)O)c2OB1O [Example 102, (R)-3-((2R,3R)-2-(4-(2-(2-chloro-6-fluoro-3,4-dihydroxybenzamido)ethyl)-2,3-dioxopiperazine-1-carboxamido)-3-hydroxybutanamido)-7-fluoro-2-hydroxy-3,4-dihydro-2H-benzo[e][1,2]oxaborinine-8-carboxylic acid]	32 to 64 µg/mL (≈ 45.9 to 91.7 µM)	32 to 64 µg/mL (≈ 45.9 to 91.7 µM)	2 to 4 µg/mL (≈ 2.87 to 5.73 µM)	32 to 64 µg/mL (≈ 45.9 to 91.7 µM)	2 to 4 µg/mL (≈ 2.87 to 5.73 µM)	0.5 to 1 µg/mL (≈ 0.717 to 1.43 µM)	2 to 4 µg/mL (≈ 2.87 to 5.73 µM)	2 to 4 µg/mL (≈ 2.87 to 5.73 µM)	32 to 64 µg/mL (≈ 45.9 to 91.7 µM)	0.5 to 1 µg/mL (≈ 0.717 to 1.43 µM)	2 to 4 µg/mL (≈ 2.87 to 5.73 µM)
NS(=O)(=O)Nc1cccc(C(NC(=O)N2CCN(Cc3c(F)cc(O)c(O)c3Cl)C(=O)C2=O)C(=O)N[C@H]2Cc3cccc(C(=O)O)c3OB2O)c1 (stereo partly drawn) [Example 131, (3R)-3-(2-(4-(2-chloro-6-fluoro-3,4-dihydroxybenzyl)-2,3-dioxopiperazine-1-carboxamido)-2-(3-(sulfamoylamino)phenyl)acetamido)-2-hydroxy-3,4-dihydro-2H-benzo[e][1,2]oxaborinine-8-carboxylic acid]	> 128 µg/mL	> 128 µg/mL	> 128 µg/mL	> 128 µg/mL	8 to 16 µg/mL (≈ 10.7 to 21.4 µM)	0.25 µg/mL (≈ 0.334 µM)	0.5 to 1 µg/mL (≈ 0.668 to 1.34 µM)	8 to 16 µg/mL (≈ 10.7 to 21.4 µM)	> 128 µg/mL	0.25 µg/mL (≈ 0.334 µM)	2 to 4 µg/mL (≈ 2.67 to 5.34 µM)
NS(=O)(=O)c1cc(O)cc(C(NC(=O)N2CCN(Cc3c(F)cc(O)c(O)c3Cl)C(=O)C2=O)C(=O)N[C@H]2Cc3cccc(C(=O)O)c3OB2O)c1 (stereo partly drawn) [Example 132, (3R)-3-(2-(4-(2-chloro-6-fluoro-3,4-dihydroxybenzyl)-2,3-dioxopiperazine-1-carboxamido)-2-(3-hydroxy-5-sulfamoylphenyl)acetamido)-2-hydroxy-3,4-dihydro-2H-benzo[e][1,2]oxaborinine-8-carboxylic acid]	> 128 µg/mL	> 128 µg/mL	8 to 16 µg/mL (≈ 10.7 to 21.3 µM)	> 128 µg/mL	8 to 16 µg/mL (≈ 10.7 to 21.3 µM)	0.25 µg/mL (≈ 0.333 µM)	> 128 µg/mL	> 128 µg/mL	> 128 µg/mL	0.5 to 1 µg/mL (≈ 0.667 to 1.33 µM)	2 to 4 µg/mL (≈ 2.67 to 5.33 µM)
